Assay results taken from ChEMBL document CHEMBL5696442, “Discovery of type II inhibitors of TGFβ-activated kinase 1 (TAK1) and mitogen-activated protein kinase kinase kinase kinase 2 (MAP4K2)” (J Med Chem, 2015).
Calls of active or inactive are those of the source. No cut-off for these calls is given here.

How the values were obtained:
[1] = biological target: T1, Phosphorylase b kinase gamma catalytic chain, liver/testis isoform (Homo sapiens) (UniProt P15735); test: Inhibition of PHKg2 Lys1 labeling site in human Huh-7 cell lysate at 1 uM by KiNativ Profiling analysis relative to control; format: subcellular
T1 sequence (whole entry): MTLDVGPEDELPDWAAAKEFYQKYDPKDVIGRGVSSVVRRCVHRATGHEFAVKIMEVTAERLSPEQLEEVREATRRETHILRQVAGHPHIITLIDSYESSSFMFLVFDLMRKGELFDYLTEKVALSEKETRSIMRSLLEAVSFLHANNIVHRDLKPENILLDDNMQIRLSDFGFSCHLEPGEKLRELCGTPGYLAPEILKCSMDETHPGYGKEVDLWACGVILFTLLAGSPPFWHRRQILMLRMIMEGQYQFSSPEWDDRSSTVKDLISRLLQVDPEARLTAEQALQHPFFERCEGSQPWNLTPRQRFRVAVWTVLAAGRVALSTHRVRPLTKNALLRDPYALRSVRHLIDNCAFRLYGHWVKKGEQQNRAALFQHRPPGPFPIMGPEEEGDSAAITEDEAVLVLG

[2] = biological target: T2, Scaffold protein ILK (Homo sapiens) (UniProt Q13418); test: Inhibition of ILK Lys1 labeling site in human A-375 cells at 0.05 uM by KiNativ Profiling analysis relative to control; format: cell-based
T2 sequence (whole entry): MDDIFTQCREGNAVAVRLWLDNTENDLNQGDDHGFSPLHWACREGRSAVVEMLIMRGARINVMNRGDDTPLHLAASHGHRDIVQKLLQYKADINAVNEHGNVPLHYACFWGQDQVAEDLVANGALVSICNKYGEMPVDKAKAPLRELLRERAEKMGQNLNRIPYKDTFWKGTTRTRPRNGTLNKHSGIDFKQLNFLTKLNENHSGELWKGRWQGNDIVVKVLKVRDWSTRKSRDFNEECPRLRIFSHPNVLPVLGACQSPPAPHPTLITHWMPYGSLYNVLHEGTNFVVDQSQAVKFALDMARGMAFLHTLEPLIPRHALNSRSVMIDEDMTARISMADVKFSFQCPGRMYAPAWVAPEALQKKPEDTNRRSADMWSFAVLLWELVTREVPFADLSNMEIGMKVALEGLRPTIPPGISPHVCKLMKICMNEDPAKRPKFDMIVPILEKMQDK

[3] = biological target: Phosphatidylinositol 4,5-bisphosphate 3-kinase catalytic subunit beta isoform (Homo sapiens) (UniProt P42338); test: Inhibition of PIK3CB ATP labeling site in human A-375 cells at 5 uM by KiNativ Profiling analysis relative to control; format: cell-based
[4] = biological target: Dual specificity testis-specific protein kinase 1 (Homo sapiens) (UniProt Q15569); test: Inhibition of TESK1 (unknown origin) at 1 uM by Ambit Kinomescan binding assay relative to control
[5] = biological target: T3, Tyrosine-protein kinase Fer (Homo sapiens, UniProt P16591); test: Inhibition of FER (unknown origin) at 1 uM by Ambit Kinomescan binding assay relative to control; values are per cent of control
[6] = biological target: Peripheral plasma membrane protein CASK (Homo sapiens) (UniProt O14936); test: Inhibition of CASK Lys1 labeling site in human A-375 cells at 5 uM by KiNativ Profiling analysis relative to control
[7] = biological target: T3, Tyrosine-protein kinase Fer; test: Inhibition of FER K1 labeling site in human Huh-7 cells at 1 uM by KiNativ Profiling analysis relative to control; format: cell-based
[8] = Inhibition of TLK1/2 K2 labeling site in human Huh-7 cells at 1 uM by KiNativ Profiling analysis relative to control; conditions: condition cancer
[9] = tested on: Receptor-type tyrosine-protein kinase FLT3 (Homo sapiens), P36888 [UNDEFINED MUTATION]; test: Inhibition of FLT3 ITD mutant (unknown origin) at 10 uM by Ambit Kinomescan binding assay relative to control
[10] = biological target: T4, Serine/threonine-protein kinase LATS1 (Homo sapiens) (UniProt O95835); test: Inhibition of LATS1 Lys2 labeling site in human A-375 cells at 0.5 uM by KiNativ Profiling analysis relative to control; format: cell-based
T4 sequence (whole entry): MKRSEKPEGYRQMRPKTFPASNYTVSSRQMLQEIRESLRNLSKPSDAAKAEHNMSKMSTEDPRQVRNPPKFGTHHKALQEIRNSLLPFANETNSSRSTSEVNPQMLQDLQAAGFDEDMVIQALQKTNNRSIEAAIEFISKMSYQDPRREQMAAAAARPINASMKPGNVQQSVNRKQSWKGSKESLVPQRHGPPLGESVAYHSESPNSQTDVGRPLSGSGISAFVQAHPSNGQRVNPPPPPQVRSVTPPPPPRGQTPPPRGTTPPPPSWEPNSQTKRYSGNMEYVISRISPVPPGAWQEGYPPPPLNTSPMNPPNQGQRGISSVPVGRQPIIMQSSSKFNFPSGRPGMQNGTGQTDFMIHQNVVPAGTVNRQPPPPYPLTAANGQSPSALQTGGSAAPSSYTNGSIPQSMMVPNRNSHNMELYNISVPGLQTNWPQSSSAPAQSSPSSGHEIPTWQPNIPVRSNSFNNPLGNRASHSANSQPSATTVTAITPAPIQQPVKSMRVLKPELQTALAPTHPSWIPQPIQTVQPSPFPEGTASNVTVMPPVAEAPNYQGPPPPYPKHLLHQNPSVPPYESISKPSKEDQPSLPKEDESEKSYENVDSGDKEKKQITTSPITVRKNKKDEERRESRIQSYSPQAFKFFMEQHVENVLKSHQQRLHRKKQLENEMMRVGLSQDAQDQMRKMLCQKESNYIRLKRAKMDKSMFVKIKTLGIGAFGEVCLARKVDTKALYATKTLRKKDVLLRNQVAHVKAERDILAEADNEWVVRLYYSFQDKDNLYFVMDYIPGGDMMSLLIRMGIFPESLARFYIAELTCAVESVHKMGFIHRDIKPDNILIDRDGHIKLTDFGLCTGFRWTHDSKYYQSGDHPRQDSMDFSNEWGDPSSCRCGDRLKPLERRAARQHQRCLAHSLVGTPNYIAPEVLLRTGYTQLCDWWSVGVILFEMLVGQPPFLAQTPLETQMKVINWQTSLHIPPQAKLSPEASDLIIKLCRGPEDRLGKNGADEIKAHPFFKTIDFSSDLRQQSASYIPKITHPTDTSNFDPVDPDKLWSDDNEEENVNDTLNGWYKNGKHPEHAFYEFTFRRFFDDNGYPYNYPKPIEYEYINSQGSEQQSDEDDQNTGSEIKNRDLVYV

[11] = biological target: Ribosomal protein S6 kinase alpha-2 (Homo sapiens) (UniProt Q15349); test: Inhibition of C-terminal RPS6KA2 kinase domain 2 (unknown origin) at 10 uM by Ambit Kinomescan binding assay
[12] = biological target: Tyrosine-protein kinase HCK (Homo sapiens) (UniProt P08631); test: Inhibition of HCK (unknown origin) at 10 uM by Ambit Kinomescan binding assay relative to control; values are per cent of control
Chain of Tyrosine-protein kinase HCK (Homo sapiens) (P08631 2-526 limits assumed): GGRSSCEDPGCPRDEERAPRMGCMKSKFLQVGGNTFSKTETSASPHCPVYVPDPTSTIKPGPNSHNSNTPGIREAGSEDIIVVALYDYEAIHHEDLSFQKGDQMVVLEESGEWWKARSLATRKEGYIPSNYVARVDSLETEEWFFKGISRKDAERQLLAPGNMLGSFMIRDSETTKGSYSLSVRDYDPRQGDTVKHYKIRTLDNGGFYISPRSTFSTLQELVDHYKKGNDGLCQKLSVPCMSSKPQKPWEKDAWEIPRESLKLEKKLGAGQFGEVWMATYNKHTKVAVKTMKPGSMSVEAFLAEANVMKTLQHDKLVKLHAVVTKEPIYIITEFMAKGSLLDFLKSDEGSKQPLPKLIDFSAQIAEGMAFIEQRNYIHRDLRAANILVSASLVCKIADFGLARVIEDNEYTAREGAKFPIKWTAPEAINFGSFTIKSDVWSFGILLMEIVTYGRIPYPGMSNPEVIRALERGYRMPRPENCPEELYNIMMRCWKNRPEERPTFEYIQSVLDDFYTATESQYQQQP

T3 sequence (P16591 whole entry, looked up): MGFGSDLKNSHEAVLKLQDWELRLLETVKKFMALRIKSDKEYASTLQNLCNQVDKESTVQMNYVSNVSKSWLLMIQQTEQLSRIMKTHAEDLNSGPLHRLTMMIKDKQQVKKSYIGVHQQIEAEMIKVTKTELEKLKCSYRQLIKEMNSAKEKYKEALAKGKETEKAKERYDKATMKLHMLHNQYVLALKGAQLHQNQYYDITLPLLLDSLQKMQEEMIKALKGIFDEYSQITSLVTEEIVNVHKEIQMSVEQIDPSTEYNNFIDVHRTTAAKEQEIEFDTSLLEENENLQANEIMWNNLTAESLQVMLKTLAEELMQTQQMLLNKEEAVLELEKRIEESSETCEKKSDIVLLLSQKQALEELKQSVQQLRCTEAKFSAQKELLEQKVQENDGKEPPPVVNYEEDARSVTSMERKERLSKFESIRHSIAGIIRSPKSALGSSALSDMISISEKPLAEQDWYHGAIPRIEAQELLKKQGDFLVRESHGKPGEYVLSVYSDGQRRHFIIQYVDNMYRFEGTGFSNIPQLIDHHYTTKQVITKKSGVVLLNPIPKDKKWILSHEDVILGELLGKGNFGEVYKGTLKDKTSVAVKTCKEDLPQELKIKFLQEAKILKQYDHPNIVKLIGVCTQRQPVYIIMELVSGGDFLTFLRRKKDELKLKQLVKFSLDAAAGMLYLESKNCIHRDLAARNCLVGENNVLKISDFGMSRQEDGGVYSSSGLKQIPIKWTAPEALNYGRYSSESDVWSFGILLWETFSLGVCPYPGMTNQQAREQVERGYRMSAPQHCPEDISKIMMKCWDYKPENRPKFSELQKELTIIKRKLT
Chain of Receptor-type tyrosine-protein kinase FLT3 (Homo sapiens), P36888 [UNDEFINED MUTATION] (P36888 whole entry, looked up, change not shown): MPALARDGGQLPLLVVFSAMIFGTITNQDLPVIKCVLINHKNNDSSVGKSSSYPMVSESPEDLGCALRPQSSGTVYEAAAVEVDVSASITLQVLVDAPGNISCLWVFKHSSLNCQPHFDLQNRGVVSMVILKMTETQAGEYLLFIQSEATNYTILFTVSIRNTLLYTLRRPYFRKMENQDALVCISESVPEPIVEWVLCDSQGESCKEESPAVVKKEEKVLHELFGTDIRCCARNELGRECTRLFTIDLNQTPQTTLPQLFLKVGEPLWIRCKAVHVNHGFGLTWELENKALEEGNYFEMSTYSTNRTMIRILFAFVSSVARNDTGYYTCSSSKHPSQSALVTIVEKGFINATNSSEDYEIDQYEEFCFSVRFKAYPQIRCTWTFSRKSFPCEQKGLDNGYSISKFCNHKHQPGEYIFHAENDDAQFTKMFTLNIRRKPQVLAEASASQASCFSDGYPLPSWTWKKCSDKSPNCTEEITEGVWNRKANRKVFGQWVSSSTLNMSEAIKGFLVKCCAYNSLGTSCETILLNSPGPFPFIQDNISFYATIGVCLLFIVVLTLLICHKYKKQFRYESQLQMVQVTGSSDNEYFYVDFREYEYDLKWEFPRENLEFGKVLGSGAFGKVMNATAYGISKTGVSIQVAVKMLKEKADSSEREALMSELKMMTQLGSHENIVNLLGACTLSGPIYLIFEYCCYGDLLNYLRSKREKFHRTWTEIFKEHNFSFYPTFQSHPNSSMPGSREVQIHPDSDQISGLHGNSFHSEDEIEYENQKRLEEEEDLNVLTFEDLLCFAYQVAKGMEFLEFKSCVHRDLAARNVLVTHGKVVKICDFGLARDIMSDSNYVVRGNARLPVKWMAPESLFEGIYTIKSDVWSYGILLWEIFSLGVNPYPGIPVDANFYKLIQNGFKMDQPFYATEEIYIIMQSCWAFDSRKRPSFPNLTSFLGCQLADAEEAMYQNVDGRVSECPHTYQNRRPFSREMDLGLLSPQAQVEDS
Chain of Ribosomal protein S6 kinase alpha-2 (Homo sapiens) (Q15349 whole entry, the tested form may be a part): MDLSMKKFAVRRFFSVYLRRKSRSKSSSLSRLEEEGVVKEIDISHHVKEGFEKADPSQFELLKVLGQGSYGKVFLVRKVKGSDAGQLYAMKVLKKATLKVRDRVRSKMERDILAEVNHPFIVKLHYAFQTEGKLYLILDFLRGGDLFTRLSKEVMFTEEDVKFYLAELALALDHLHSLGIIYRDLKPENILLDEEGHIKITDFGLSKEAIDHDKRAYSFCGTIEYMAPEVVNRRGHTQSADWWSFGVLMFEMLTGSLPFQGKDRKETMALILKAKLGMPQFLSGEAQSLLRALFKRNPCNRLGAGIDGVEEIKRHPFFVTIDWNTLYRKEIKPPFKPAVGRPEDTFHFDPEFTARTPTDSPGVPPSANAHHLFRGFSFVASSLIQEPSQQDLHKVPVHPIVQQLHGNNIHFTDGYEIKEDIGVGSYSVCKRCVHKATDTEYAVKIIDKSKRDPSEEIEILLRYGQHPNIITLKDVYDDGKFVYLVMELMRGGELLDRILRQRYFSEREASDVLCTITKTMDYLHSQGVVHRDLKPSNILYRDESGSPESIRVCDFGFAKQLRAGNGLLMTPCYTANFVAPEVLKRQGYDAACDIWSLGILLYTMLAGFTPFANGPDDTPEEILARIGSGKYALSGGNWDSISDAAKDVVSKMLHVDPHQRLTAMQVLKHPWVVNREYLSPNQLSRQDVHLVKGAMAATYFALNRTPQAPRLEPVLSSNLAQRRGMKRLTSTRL
Chain of Phosphatidylinositol 4,5-bisphosphate 3-kinase catalytic subunit beta isoform (Homo sapiens) (P42338 whole entry, looked up, canonical isoform): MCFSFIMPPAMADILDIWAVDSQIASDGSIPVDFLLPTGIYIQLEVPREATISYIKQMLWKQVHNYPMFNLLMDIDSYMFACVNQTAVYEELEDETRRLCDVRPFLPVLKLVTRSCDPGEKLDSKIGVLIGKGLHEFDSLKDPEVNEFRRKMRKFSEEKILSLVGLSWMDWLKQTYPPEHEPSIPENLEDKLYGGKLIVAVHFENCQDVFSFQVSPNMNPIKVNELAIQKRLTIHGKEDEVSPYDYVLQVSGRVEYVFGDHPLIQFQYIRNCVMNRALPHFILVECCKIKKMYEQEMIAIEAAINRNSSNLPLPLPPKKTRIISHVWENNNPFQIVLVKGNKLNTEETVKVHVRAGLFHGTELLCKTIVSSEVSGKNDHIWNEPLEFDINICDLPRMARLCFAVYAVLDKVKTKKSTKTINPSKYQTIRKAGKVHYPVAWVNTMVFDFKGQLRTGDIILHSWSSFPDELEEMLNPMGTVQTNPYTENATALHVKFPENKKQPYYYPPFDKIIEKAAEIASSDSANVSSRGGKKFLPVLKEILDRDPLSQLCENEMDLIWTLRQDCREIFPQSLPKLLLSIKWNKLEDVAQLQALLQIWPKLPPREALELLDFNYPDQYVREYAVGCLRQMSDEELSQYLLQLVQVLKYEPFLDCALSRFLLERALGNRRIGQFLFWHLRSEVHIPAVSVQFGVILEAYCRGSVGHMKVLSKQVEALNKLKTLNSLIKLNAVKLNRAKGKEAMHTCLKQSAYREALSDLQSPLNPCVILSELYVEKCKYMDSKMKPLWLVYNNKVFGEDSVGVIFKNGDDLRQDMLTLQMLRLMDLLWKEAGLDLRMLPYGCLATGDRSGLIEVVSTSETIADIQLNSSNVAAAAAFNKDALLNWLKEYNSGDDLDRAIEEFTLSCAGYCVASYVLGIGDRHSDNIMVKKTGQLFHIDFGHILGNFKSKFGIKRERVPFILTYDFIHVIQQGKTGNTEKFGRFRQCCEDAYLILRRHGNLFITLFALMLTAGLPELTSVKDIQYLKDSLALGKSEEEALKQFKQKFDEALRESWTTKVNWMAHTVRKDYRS
Chain of Dual specificity testis-specific protein kinase 1 (Homo sapiens) (Q15569 whole entry, looked up): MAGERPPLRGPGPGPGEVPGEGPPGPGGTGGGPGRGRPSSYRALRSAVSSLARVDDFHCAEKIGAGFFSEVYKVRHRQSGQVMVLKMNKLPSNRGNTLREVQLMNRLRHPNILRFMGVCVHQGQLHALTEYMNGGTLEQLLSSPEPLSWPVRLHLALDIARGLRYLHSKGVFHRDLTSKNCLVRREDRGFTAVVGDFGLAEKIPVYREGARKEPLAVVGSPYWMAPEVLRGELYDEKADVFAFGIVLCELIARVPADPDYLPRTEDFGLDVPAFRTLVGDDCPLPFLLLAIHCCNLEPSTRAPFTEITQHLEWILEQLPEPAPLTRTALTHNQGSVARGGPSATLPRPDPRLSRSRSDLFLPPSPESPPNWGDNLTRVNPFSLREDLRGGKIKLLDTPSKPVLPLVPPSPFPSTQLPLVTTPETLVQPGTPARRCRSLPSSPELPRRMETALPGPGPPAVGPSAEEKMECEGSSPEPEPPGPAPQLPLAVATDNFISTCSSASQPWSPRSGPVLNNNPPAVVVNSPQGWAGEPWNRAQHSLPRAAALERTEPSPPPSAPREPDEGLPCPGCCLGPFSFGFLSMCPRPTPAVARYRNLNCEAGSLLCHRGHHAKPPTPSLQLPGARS

SMILES: CNc1cc(Oc2cc(C(=O)Nc3cc(N4CCN(C)CC4)cc(C(F)(F)F)c3)ccc2C)ncn1
- inhibition [1]: 0.2%

SMILES: CCN1CCN(Cc2ccc(NC(=O)c3ccc(C)c(/C=C/c4cnc5[nH]ccc5c4OC)c3)cc2C(F)(F)F)CC1
- inhibition [2]: 3.9%
- inhibition [3]: 26.6%
- inhibition [4]: 100%
- residual activity [5]: 21%

SMILES: CCN1CCN(Cc2ccc(NC(=O)c3ccc(C)c(Oc4ccnc5[nH]ccc45)c3)cc2C(F)(F)F)CC1
- inhibition [6]: 6.6%
- inhibition [7]: 52.4%
- inhibition at 1 µM [8]: -1.1%
- inhibition [9]: 0.7%
- inhibition [10]: -1.1%
- inhibition [11]: inactive
- percent of control [12]: 0.4%
